In patent US6387893B1, “Spirotricyclic substituted azacycloalkane derivatives and uses thereof” (Merck & Co., Inc., priority 1999, dated 2002):
pKi: −log10 of the molar value. Counter-ions that a name gives are not always drawn.

Target: T1, human alpha 1a adrenergic receptor (Homo sapiens, UniProt P35348)
T1 sequence (P35348 1-466): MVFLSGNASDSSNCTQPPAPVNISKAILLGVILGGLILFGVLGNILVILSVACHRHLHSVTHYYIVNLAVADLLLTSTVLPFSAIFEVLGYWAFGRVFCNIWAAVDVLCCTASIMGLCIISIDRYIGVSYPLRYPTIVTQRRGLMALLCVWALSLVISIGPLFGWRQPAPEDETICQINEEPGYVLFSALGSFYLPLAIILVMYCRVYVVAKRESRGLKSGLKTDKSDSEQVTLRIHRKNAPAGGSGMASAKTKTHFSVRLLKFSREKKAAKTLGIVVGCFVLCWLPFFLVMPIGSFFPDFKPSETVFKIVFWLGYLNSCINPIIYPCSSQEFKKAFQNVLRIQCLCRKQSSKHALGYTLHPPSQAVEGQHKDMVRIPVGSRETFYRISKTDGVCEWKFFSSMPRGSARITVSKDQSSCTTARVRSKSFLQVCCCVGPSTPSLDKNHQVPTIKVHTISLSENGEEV
Assay: Screening assay: alpha 1a adrenergic receptor binding ([125I]-HEAT competition)
Settings: membranes from stably transfected human alpha 1a cell line (ATCC CRL 11140), 100 pM [125I]-HEAT
Method: Screening Assay: Alpha 1a Adrenergic Receptor Binding
Membranes prepared from the stably transfected human alpha 1a cell line (ATCC CRL 11140) were used to identify compounds that bind to the human alpha 1a adrenergic receptor. These competition binding reactions (total volume=200 μl) contained 50 mM Tris-HCl pH. 7.4, 5 mM EDTA, 150 mM NaCl, 100 pM [^125I]-HEAT, membranes prepared from the alpha 1a cell line and increasing amounts of unlabeled ligand. Reactions were incubated at room temperature for one hour with shaking. Reactions were filtered onto Whatman GF/C glass fiber filters with a Inotec 96 well cell harvester. Filters were washed three times with ice cold buffer and bound radioactivity was determined (Ki).

SMILES | pKi
COCC1=C(C(=O)OC)[C@H](c2ccc(F)c(F)c2)N(C(=O)NCCCN2CCC3(CC2)c2ccccc2S(=O)(=O)c2ccccc23)C(=O)N1 [Example 33, 1,2,3,6-tetrahydro-1-[(10,10-dioxo-spirothioxanthene-9,4′-piperidin-1′-yl)propyl]aminocarbonyl-5-methoxycarbonyl-4-methoxymethyl-6(S)-(3,4-difluorophenyl)-2-oxopyrimidine] | > 7.70
COCC1=C(C(=O)OC)[C@H](c2ccc(F)c(F)c2)N(C(=O)NCCCN2CCC3(CC2)c2ccccc2-c2ccccc23)C(=O)N1 [Example 8, 1,2,3,6-tetrahydro-1-[(spirofluorene-9,4′-piperidin-1′-yl)propyl]aminocarbonyl-5-methoxycarbonyl-4-methoxymethyl-6(S)-(3,4-difluorophenyl)-2-oxopyrimidine] | > 7.70
COCC1=C(C(=O)OC)[C@H](c2ccc(F)c(F)c2)N(C(=O)NCCCN2CCC3(CC2)c2ccccc2-c2ncccc23)C(=O)N1 [Example 49] | > 7.70
O=C(NCCCN1CCC2(CC1)c1ccccc1CCc1ccccc12)N1C(=O)OC[C@@H]1c1ccc(F)c(F)c1 [Example 57, 1′-{3-[4(S)-(3,4-difluorophenyl)-2-oxooxazolidin-3-carbonylamino]-propyl}-(10,11-dihydrospiro-5H-dibenzo[a,d]cycloheptene)-5,4′-piperidine] | > 7.70
Cc1ccc(C2(c3ccc(C)cc3)NC(=O)N(CCCN3CCC4(CC3)c3ccccc3-c3ccccc34)C2=O)cc1 [Example 4, 1′-[3-(5,5-Bis-p-tolyl-2,4-dioxoimidazolidin-3-yl)propyl]spirofluorene-9,4′-piperidine] | > 7.70
O=C(NCCCN1CCC2(CC1)c1ccccc1[S+]([O-])c1ccccc12)N1C(=O)OC[C@@H]1c1ccc(F)c(F)c1 [Example 26, 1′-{3-[(4S)-(3,4-Difluorophenyl)-2-oxooxazolidin-3-carbonylamino]propyl}-(10-oxo-spirothioxanthene-9,4′-piperidine)] | > 7.70
O=C(NCCCN1CCC2(CC1)c1cc(Cl)ccc1Oc1ccc(Cl)cc12)N1C(=O)OC[C@@H]1c1ccc(F)c(F)c1 [Example 42, 1′-{3-[(4S)-(3,4-Difluorophenyl)-2-oxooxazolidin-3-carbonylamino]propyl}-2,7-dichlorospiroxanthene-9,4′-piperidine] | > 7.70
COCC1=C(C(=O)OC)[C@H](c2ccc(F)c(F)c2)N(C(=O)NCCCN2CCC3(CC2)c2ccccc2-c2cccnc23)C(=O)N1 [Example 53, 1,2,3,6-tetrahydro-1-[3-((spiro(9H-indeno[2,1-b]pyridine)-9,4′-piperidin)-1′-yl)propylaminocarbonyl]-5-methoxycarbonyl-4-methoxymethyl-6(S)-(3,4-difluorophenyl)-2-oxopyrimidine] | > 7.70
O=C(NCCCN1CCC2(CC1)c1ccccc1Oc1ccc(Cl)cc12)N1C(=O)OC[C@@H]1c1ccc(F)c(F)c1 [Example 40, 1′-{3-[(4S)-(3,4-Difluorophenyl)-2-oxooxazolidin-3-carbonylamino]propyl}-2-chlorospiroxanthene-9,4′-piperidine] | > 7.70

Next, values leading:

pKi | SMILES
> 7.70 | O=C(NCCCN1CCC2(CC1)c1ccccc1-c1ccccc12)N1C(=O)OC[C@@H]1c1ccc(F)c(F)c1 [Example 6, 1′-{3-[(4S)-(3,4-Difluorophenyl)-2-oxooxazolidin-3-carbonylamino]propyl}spirofluorene-9,4′-piperidine]
> 7.70 | O=C1OC[C@H](c2ccc(F)c(F)c2)N1CCCCCN1CCC2(CC1)c1ccccc1CCc1ccccc12 [Example 58, 1′-{5-[4(S)-(3,4-difluorophenyl)-2-oxooxazolidin-3-yl]-pentyl}-(10,11-dihydrospiro-5H-dibenzo[a,d]cycloheptene)-5,4′-piperidine]
> 7.70 | Cc1ccc(C2(c3ccc(C)cc3)NC(=O)N(CCCN3CCC4(CC3)c3ccccc3-c3ccc(Br)cc34)C2=O)cc1 [Example 10, 1′-[3-(5,5-Bis-p-tolyl-2,4-dioxoimidazolidin-3-yl)propyl]-2-bromospirofluorene-9,4′-piperidine]
> 7.70 | COCC1=C(C(=O)OC)[C@H](c2ccc(F)c(F)c2)N(C(=O)NCCCN2CCC3(CC2)c2ccccc2-c2ccc(F)cc23)C(=O)N1 [Example 14, 1,2,3,6-tetrahydro-1-[((2-fluorospirofluorene-9,4′-piperidin)-1′-yl)propyl]aminocarbonyl-5-methoxycarbonyl-4-methoxymethyl-6(S)-(3,4-difluorophenyl)-2-oxopyrimidine]
> 7.70 | COCC1=C(C(=O)OC)[C@H](c2ccc(F)c(F)c2)N(C(=O)NCCCN2CCC3(CC2)c2ccccc2[S+]([O-])c2ccccc23)C(=O)N1 [Example 27, 1,2,3,6-tetrahydro-1-[(10-oxo-spirothioxanthene-9,4′-piperidin-1′-yl)propyl]aminocarbonyl-5-methoxycarbonyl-4-methoxymethyl-6(S)-(3,4-difluorophenyl)-2-oxopyrimidine]
> 7.70 | O=C(NCCCN1CCC2(CC1)c1cc(F)ccc1Oc1ccc(F)cc12)N1C(=O)OC[C@@H]1c1ccc(F)c(F)c1 [Example 44, 1′-{3-[(4S)-(3,4-Difluorophenyl)-2-oxooxazolidin-3-carbonylamino]propyl}-2,7-difluorospiroxanthene-9,4′-piperidine]
> 7.70 | O=C(NCCCN1CCC2(CC1)c1ccccc1S(=O)(=O)c1ccccc12)N1C(=O)OC[C@@H]1c1ccc(F)c(F)c1 [Example 32, 1′-{3-[(4S)-(3,4-Difluorophenyl)-2-oxooxazolidin-3-carbonylamino]propyl}-(10,10-dioxo-spirothioxanthene-9,4′-piperidine)]

Test system: not given
Assay: not given
Settings: not given

SMILES | melting point
O=C(NCCCN1CCC2(CC1)c1ccccc1S(=O)(=O)c1ccccc12)N1C(=O)OC[C@@H]1c1ccc(F)c(F)c1 (as salt: HCl) [Example 32, 1′-{3-[(4S)-(3,4-Difluorophenyl)-2-oxooxazolidin-3-carbonylamino]propyl}-(10,10-dioxo-spirothioxanthene-9,4′-piperidine)] | 158 to 187 °C
O=C1OC[C@H](c2ccc(F)c(F)c2)N1CCCCCCN1CCC2(CC1)c1ccccc1Sc1ccccc12 (as salt: HCl) [Example 20, 4-(S)-(3,4-Difluorophenyl)-3-[6-(spirothioxanthen-9,4′-piperidin-1′-yl)-hexyl]-oxazolidin-2-one] | 90 to 130 °C
COCC1=C(C(=O)OC)[C@H](c2ccc(F)c(F)c2)N(C(=O)NCCCN2CCC3(CC2)c2ccccc2[S+]([O-])c2ccccc23)C(=O)N1 (as salt: HCl) [Example 27, 1,2,3,6-tetrahydro-1-[(10-oxo-spirothioxanthene-9,4′-piperidin-1′-yl)propyl]aminocarbonyl-5-methoxycarbonyl-4-methoxymethyl-6(S)-(3,4-difluorophenyl)-2-oxopyrimidine] | 185 to 196 °C
O=C1OC[C@H](c2ccc(F)c(F)c2)N1CCCCCN1CCC2(CC1)c1ccccc1CCc1ccccc12 (as salt: hydrochloride) [Example 58, 1′-{5-[4(S)-(3,4-difluorophenyl)-2-oxooxazolidin-3-yl]-pentyl}-(10,11-dihydrospiro-5H-dibenzo[a,d]cycloheptene)-5,4′-piperidine] | 232 to 236 °C
COCC1=C(C(=O)OC)[C@H](c2ccc(F)c(F)c2)N(C(=O)NCCCN2CCC3(CC2)c2ccccc2S(=O)(=O)c2ccccc23)C(=O)N1 (as salt: HCl) [Example 33, 1,2,3,6-tetrahydro-1-[(10,10-dioxo-spirothioxanthene-9,4′-piperidin-1′-yl)propyl]aminocarbonyl-5-methoxycarbonyl-4-methoxymethyl-6(S)-(3,4-difluorophenyl)-2-oxopyrimidine] | 158 to 196 °C
COCC1=C(C(=O)OC)[C@H](c2ccc(F)c(F)c2)N(C(=O)NCCCN2CCC3(CC2)c2ccccc2-c2cccnc23)C(=O)N1 (as salt: hydrochloride) [Example 53, 1,2,3,6-tetrahydro-1-[3-((spiro(9H-indeno[2,1-b]pyridine)-9,4′-piperidin)-1′-yl)propylaminocarbonyl]-5-methoxycarbonyl-4-methoxymethyl-6(S)-(3,4-difluorophenyl)-2-oxopyrimidine] | 201 to 209 °C

Now from value to compound:

melting point | SMILES
97 to 132 °C | O=C1OCC(c2ccc(F)c(F)c2)N1CCCCN1CCC2(CC1)c1ccccc1Sc1ccccc12 (stereo not shown) (as salt: HCl)
157 to 180 °C | COCC1=C(C(=O)OC)[C@H](c2ccc(F)c(F)c2)N(C(=O)NCCCN2CCC3(CC2)c2ccccc2-c2ncccc23)C(=O)N1 (as salt: hydrochloride) [Example 49]
90 to 130 °C | O=C1OC[C@H](c2ccc(F)c(F)c2)N1CCCCCN1CCC2(CC1)c1ccccc1Sc1ccccc12 (as salt: HCl) [Example 19, 4-(S)-(3,4-Difluorophenyl)-3-[5-(spirothioxanthen-9,4′-piperidin-1′-yl)-pentyl]-oxazolidin-2-one]
